Assay [1] addresses T1, 5-lipoxygenase (Rattus norvegicus, UniProt P12527).
T1 construct: endogenous in cells; host or cells: RBL-1 cells (rat basophilic leukemia)
T1 sequence (P12527 1-673): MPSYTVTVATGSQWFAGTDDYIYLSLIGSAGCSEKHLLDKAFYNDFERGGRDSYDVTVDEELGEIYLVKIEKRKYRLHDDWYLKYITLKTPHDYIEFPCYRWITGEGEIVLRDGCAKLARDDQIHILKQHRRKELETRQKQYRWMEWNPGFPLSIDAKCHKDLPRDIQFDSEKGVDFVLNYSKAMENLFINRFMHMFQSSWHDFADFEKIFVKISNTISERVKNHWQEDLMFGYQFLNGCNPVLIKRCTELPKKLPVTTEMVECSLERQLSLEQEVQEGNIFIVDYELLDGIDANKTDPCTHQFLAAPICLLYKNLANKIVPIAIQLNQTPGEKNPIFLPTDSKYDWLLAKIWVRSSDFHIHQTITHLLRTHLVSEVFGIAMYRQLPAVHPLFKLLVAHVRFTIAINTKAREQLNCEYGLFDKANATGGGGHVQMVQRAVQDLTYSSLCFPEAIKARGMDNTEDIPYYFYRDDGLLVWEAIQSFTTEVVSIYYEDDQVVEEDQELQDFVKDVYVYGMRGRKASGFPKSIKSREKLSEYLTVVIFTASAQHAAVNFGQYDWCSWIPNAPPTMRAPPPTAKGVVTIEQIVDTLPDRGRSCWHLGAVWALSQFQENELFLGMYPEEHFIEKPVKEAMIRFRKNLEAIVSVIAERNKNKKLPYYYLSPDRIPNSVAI
Briefly: Inhibition of 5-lipoxygenase in RBL-1-cells. It is filed as cell-based. The conditions noted are these: 20 μM [14C]-arachidonic acid, 20 μM calcium ionophore A 23 187, 10 minutes. As to the method:
To determine the inhibition of 5-lipoxygenase, rat basophilic leukemia cells (RBL-1-cells) were cultured in vitro, harvested by centrifugation, washed with 50 mM potassium phosphate buffer of pH 7.4, and then suspended in this buffer at 1×10^7 cells/ml. Indomethacin (10 μM) and calcium chloride (2 mM) were added to 1 ml portions of this suspension, and then the mixture was incubated either in the presence of a compound according to the invention in a concentration range of from 0,1 μM to 100 μM or in the presence of a solvent (ethanol and/or dimethyl sulfoxide) for 3 minutes and thereafter with 20 μM of [^14 C]-arachidonic acid and 20 μM of calcium ionophore A 23 187 for 10 minutes. The reaction was stopped by adding 20 μl of glacial acetic acid, and then the mixture was extracted with ethyl acetate to isolate the metabolites of arachidonic acid formed by the enzymatic action of 5-lipoxygenase. These were separated by thin layer chromatography using a solvent mixture known to be suitable for lipoxygenase products [c.f. Jakschik et al., Biochem. Biophys. Res. Commun. 102, 624 (1981)].
The distribution of radioactivity among the different metabolites of arachidonic acid was measured using a TLC Linear Analyzer. By correlating the percentage amounts of the products formed under the action of 5-lipoxygenase (5HETE, isomers of LTB4) in the absence as well as in the presence of different concentrations of compounds according to the invention, the IC50 -values, i.e. the concentrations which cause a 50% inhibition of 5-lipoxygenase, were determined graphically from semilogarithmic plots.

For assay [2], the target named is T1, 5-lipoxygenase. Briefly: Inhibition of Cell-free 5-lipoxygenase from RBL-1-cells (polarographic, 10,000 × g supernatant). In kind it is biochemical. The conditions noted are these: 10,000 × g supernatant of homogenized RBL-1-cells; arachidonic acid 75 μM; 35° C.; calculated IC50. The protocol:
Cell-free 5-lipoxygenase was polarographically measured from 10,000 × g supernatant of homogenized rat basophilic leucemia cells (M. Haurand & L. Flohe in Biol. Chem. Hoppe-Seyler 369, 133 to 142 (1988)). After preincubation of the 10,000 × g supernatant with arachidonic acid (75 μM), ATP (adenosine triphosphate; 4 mM), reduced glutathione (4 mM), and either a compound according to the invention (0.1 to 100 μM) or a solvent (ethanol and/or dimethyl sulfoxide) at 35° C. for 5 minutes, the lipoxygenase reaction was initiated by addition of calcium chloride (3 mM) and simultaneously recorded.
The activity of 5-lipoxygenase was determined from the difference in the pO2 -decrease before and after addition of calcium chloride. The evaluation included the initial rate of the reaction after the lag-phase as well as the duration of the lag-phase. In the concentration range of from 3 to 50 μM, the test substances induced lag-phases between 20 and 60 seconds.

Assay [3] has as its system 5-lipoxygenase. Briefly: Inhibition of 5-lipoxygenase in Rat Blood After Oral Administration (ex vivo iLTB4-formation). The conditions noted are these: 21.5 mg/kg oral, male Wistar rats, one hour after administration. The protocol: The bioavailability of the compounds of formula I as 5-lipoxygenase inhibitors was characterized by means of an ex vivo biochemical assay method described by Tateson et al. in Brit. J. Pharmacol. 94, 528 (1988): A compound of formula I was orally administered to male rats (Wistar strain) at a dose of 21.5 mg/kg. After lethal CO2 -narcosis one hour after administration, the rats were bled by heart puncture with added heparin as an anticoagulant. Aliquots of the whole blood were incubated at 37° C. for 30 minutes in a water bath with calcium ionophore A 23 187 at an end concentration of 15 μg/ml. At the end of the incubation, the samples were centrifuged, and the concentration of the immunoreactive LTB4 (iLTB4) in aliquots of cell-free plasma was determined by radioimmunoassay (3H-LTB4 -RIA, Amersham). To enable calculation of the inhibition in percent of ex vivo iLTB4 -formation in whole rat blood treated with a compound according to the invention, rats orally treated with an appropriate vehicle solution were included in all experiments, and aliquots of their blood were run in parallel and were processed in the same way as described. The average iLTB4 -content of the plasma of the vehicletreated rats served as a 100% value. The activity in percent of the ex vivo iLTB4 -formation after oral administration of a compound according to the invention was calculated by dividing the average value of the iLTB4 -contents in ng iLTB4 /ml of the group treated with a compound according to the invention by the average value of the iLTB4 -contents in ng iLTB4 /ml of the vehicle treated group and subsequent multiplication by a factor of 100. The respective inhibition in percent was calculated by subtracting the activity in percent from 100.

Assay [4] addresses T2, 12-lipoxygenase (Homo sapiens, UniProt P18054).
T2 sequence (P18054 1-663): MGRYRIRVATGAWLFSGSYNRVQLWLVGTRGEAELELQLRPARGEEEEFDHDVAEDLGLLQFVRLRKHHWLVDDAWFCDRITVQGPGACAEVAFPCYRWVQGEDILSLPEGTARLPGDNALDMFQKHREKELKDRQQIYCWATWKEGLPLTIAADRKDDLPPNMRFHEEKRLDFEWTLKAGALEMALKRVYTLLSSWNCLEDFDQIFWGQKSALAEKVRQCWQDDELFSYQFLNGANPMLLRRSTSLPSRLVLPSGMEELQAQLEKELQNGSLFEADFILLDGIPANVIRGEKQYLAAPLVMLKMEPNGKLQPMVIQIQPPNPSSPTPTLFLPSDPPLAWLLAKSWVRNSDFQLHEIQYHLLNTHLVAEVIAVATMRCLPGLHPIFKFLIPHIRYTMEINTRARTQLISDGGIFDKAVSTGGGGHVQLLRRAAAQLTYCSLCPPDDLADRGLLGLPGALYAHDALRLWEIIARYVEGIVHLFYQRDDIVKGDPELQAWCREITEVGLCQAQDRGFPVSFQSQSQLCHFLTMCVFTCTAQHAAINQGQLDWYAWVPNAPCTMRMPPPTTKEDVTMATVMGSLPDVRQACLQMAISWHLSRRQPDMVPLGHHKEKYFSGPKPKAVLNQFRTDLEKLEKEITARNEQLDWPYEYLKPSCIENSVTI
In words: Inhibition of 12-lipoxygenase in human blood. It is filed as cell-based. On the set-up: 3 ml aliquots of human whole blood treated with heparin; from tissue; host or cells: human whole blood (heparinized). Conditions: human whole blood; calcium ionophore A 23 187 15 μg/ml; 37° C., 30 minutes; 12-HETE by HPLC. As to the method:
3 ml aliquots of human whole blood treated with heparin were incubated either with a compound according to the invention or with dimethyl sulfoxide at 37° C. for 5 minutes. Then 12-lipoxygenase was activated by addition of calcium ionophore A 23 187 (15 μg/ml blood). After incubation at 37° C. for 30 minutes and centrifugation, cell-free plasma was obtained. Plasma protein was precipitated by addition of 2 ml of ethanol per ml of plasma and then separated by centrifugation. After adjusting the ethanol content in the supernatant with water to 10% by volume, the 12-lipoxygenase product 12-HETE was enriched by solid phase extraction using an octadecyl silica column. The methanolic eluate was evaporated to dryness, diluted in 40% by volume of methanol, and the 12-HETE-content was determined by HPLC. The IC50 -values of the compounds of the invention prepared according to Examples 1, 8 and 16 were 2, 4 and 3 μmolar, respectively.

SMILES strings stand for the structures.

Consider one molecule from US5326902A, “Oxyalkyne compounds, pharmaceutical compositions containing them and processes for preparing such compounds and compositions” (Gruenenthal GmbH, priority 1992, dated 1994).

One may read the IC50 as the concentration needed to halve the response being measured. As to `NC(=O)N(O)Cc1ccc(C(O)C#Cc2ccccc2)cc1` (stereo not shown) [Example 8, N-Hydroxy-N-[4-[1-hydroxy-3-phenyl-prop-2-yn-1-yl]benzyl]urea], the half-inhibitory concentration (IC50) in assay [1] is 7 µM; in assay [2], 8 µM; in assay [4], 4 µM. Moreover, the “Inhibition [%] of ex vivo iLTB4-formation” value in assay [3] came to 65%.
